# Laboratory results published in patent US12528790B2, “Amide derivative having antiviral activity” (Shionogi & Co., Ltd., priority 2020, dated 2026).
# System: RSV A2 strain
# Experiment: In vitro CPE (CytoPathic Effect) inhibition effect evaluation test, RSV type A
# Format: cell-based
# Details: human respiratory syncytial virus, HEp-2
# Summary of the method: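 EC50 is the concentration giving 50% inhibition of virus-induced cytopathic effect, fitted by nonlinear regression from CellTiter-Glo 2.0 viability. Compounds in 3-fold series were co-incubated at 37 °C with HEp-2 cells and RSV: A2 strain for 4 days, B (Wash/18537) for 5 days; uninfected wells served as control.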
row,SMILES,EC50 [nM]
1,O=C(NC1(C(=O)O)CCCCC1)c1cnc(N2CC3(CCNCC3)c3cc(OCCC4CCOCC4)ccc32)nc1C(F)(F)F [Compound I-89],100 to 5000
2,Cc1ccc2c(c1)C1(CCN(C3COC3)CC1)CN2c1ncc(C(=O)NC2(C(N)=O)C3CC4CC(C3)CC2C4)c(C(F)(F)F)n1 (stereo not shown) [Compound I-181],10 to 100
3,COc1cc(COc2ccc3c(c2)CCN3c2ncc(C(=O)NC3(C(=O)O)CCCCC3)c(C(F)(F)F)n2)ccn1 [Compound I-27],10 to 100

# Same assay, conditions: human respiratory syncytial virus; inhibitory effect against RSV type A (RSV A2 strain), HEp-2 cells, CPE inhibition; read-out: EC50
row,SMILES,EC50 [nM]
1,O=C(NC1(C(=O)O)CCCCC1)c1cnc(N2CCc3cc(OC4CCN(c5ccncc5)CC4)ccc32)nc1C(F)(F)F [Compound I-84],10 to 100
2,Cn1ccnc1N1CCC(Oc2ccc3c(c2)CCN3c2ncc(C(=O)NC3(C(=O)O)CCCCC3)c(C(F)(F)F)n2)CC1 [Compound I-207],10 to 100
3,CN(C)CCc1nc(N2CC3(CCOCC3)c3cc(OC4CCN(c5ncccn5)CC4)ccc32)nc(C(F)(F)F)c1C(=O)NC1(C(=O)O)C2CC3CC(C2)CC1C3 (stereo not shown) [Compound I-168],< 10
4,COc1cccc(COc2ccc3c(c2)CCN3c2ncc(C(=O)NC3(C(=O)O)CC4CCC3C4)c(C(F)(F)F)n2)c1 (stereo not shown) [Compound I-13],< 10
5,CC(N1CCC(Oc2ccc3c(-c4ncc(C(=O)NC5(C(=O)O)C6CC7CC(C6)CC5C7)c(C(F)(F)F)n4)cn(C4CCC(F)(F)CC4)c3c2)CC1)C(F)(F)F (racemic) [Compound I-449],< 10
6,O=C(NC1(C(=O)O)C2CC3CC(C2)CC1C3)c1cnc(-c2cn(C3CCC(F)(F)CC3)c3cc(OCc4ccc5c(c4)OCC5)ccc23)nc1C(F)(F)F (stereo not shown) [Compound I-278],< 10
7,O=C(NC1(C(=O)O)C2CC3CC(C2)CC1C3)c1ccc(-c2cn(C3CCC3)c3cc(OC4CCN(c5ncccn5)CC4)ccc23)nc1C(F)(F)F (stereo not shown) [Compound I-154],< 10
8,O=C(NC1(C(=O)O)C2CC3CC(C2)CC1C3)c1ccc(-c2cn(C3CCCC3)c3cc(OC4CCN(c5ncccn5)CC4)ccc23)nc1C(F)(F)F (stereo not shown) [Compound I-289],< 10
9,CC(C)(C)OC(=O)N1CCC(Oc2ccc3c(c2)CCN3c2ncc(C(=O)NC3(C(=O)O)CCCCC3)c(C(F)(F)F)n2)CC1 [Compound I-32],10 to 100
10,CC(=O)OCCCCOc1ccc2c(c1)CCN2c1ncc(C(=O)NC2(C(=O)O)CCCCC2)c(C(F)(F)F)n1 [Compound I-6],10 to 100
11,CCc1nc(COc2ccc3c(c2)CCN3c2ncc(C(=O)NC3(C(=O)O)CCCCC3)c(C(F)(F)F)n2)cs1 [Compound I-59],10 to 100
12,O=C(NC1(C(=O)O)CCCCC1)c1cnc(N2CC3(CC3)c3cc(OCCC4CCOCC4)ccc32)nc1C(F)(F)F [Compound I-44],10 to 100
13,O=C(NC1(C(=O)O)C2CC3CC(C2)CC1C3)c1ccc(-c2cn(CC(F)(F)F)c3cc(OC4CCN(c5ncccn5)CC4)ccc23)nc1C(F)(F)F (stereo not shown) [Compound I-252],< 10
14,O=C(NC1(C(=O)O)C2CC3CC(C2)CC1C3)c1ccc(-c2cn([C@H]3CC[C@H](C(F)(F)F)CC3)c3cc(OC4CCN(c5ncccn5)CC4)ccc23)nc1C(F)(F)F (stereo partly shown) [Compound I-286],10 to 100
15,O=C(NC1(C(=O)O)C2CC3CC(C2)CC1C3)c1cnc(-c2cn(-c3ncccn3)c3cc(OC4CCN(c5ncc(F)cn5)CC4)ccc23)nc1C(F)(F)F (stereo not shown) [Compound I-468],< 10
16,COc1cccc(CNc2ccc3c(c2)CCN3c2ncc(C(=O)NC3(C(=O)O)CCCCC3)c(C(F)(F)F)n2)c1 [Compound I-40],< 10
17,Cn1cc(CN2CC(Oc3ccc4c(c3)C3(CCOCC3)CN4c3ncc(C(=O)NC4(C(=O)O)C5CC6CC(C5)CC4C6)c(C(F)(F)F)n3)C2)cn1 (stereo not shown) [Compound I-231],< 10
18,CC(=O)N1CCC(Oc2ccc3c(c2)CCN3c2ncc(C(=O)NC3(C(=O)O)CCCCC3)c(C(F)(F)F)n2)CC1 [Compound I-64],100 to 5000
19,O=C(NC1(C(=O)O)CCC(F)(F)CC1)c1cnc(N2CCc3cc(OCCC4CCOCC4)ccc32)nc1C(F)(F)F [Compound I-20],10 to 100
20,O=C(NC1(C(=O)O)C2CC3CC(C2)CC1C3)c1ccc(N2CCc3cc(OCCC4CCOCC4)cnc32)cc1C(F)(F)F (stereo not shown) [Compound I-125],10 to 100

# The remaining lines, values ahead:
row,EC50 [nM],SMILES
1,< 10,O=C(NC1(C(=O)O)C2CC3CC(C2)CC1C3)c1cnc(N2CC3(CCOCC3)c3cc(C4=CCCC4)ccc32)nc1C(F)(F)F (stereo not shown) [Compound I-128]
2,< 10,CC1CN(c2ncc(F)cn2)CCC1Oc1ccc2c(-c3ncc(C(=O)NC4(C(=O)O)C5CC6CC(C5)CC4C6)c(C(F)(F)F)n3)cn(C3CCC(F)(F)CC3)c2c1 (stereo not shown) [Compound I-376]
3,< 10,O=C(NC1(C(=O)O)C2CC3CC(C2)CC1C3)c1cnc(-c2cn(C3CCC(F)(F)CC3)c3cc(O[C@@H]4CCN(C5COC5)C4)ccc23)nc1C(F)(F)F (stereo partly shown) [Compound I-246]
4,< 10,O=C(NC1(C(=O)O)C2CC3CC(C2)CC1C3)c1ccc(-c2cn(-c3ccc(F)cc3)c3cc(OC4CCN(c5ncccn5)CC4)ccc23)nc1C(F)(F)F (stereo not shown) [Compound I-389]
5,< 10,COC(=O)N1CCC(Oc2ccc3c(-c4ncc(C(=O)NC5(C(=O)O)C6CC7CC(C6)CC5C7)c(C(F)(F)F)n4)cn(C4CCC(F)(F)CC4)c3c2)CC1 (stereo not shown) [Compound I-255]
6,< 10,CC1CN(CC(F)(F)F)CCC1Oc1ccc2c(-c3ncc(C(=O)NC4(C(=O)O)C5CC6CC(C5)CC4C6)c(C(F)(F)F)n3)cn(C3CCC(F)(F)CC3)c2c1 (stereo not shown) [Compound I-403]
7,< 10,O=C(NC1(C(=O)O)C2CC3CC(C2)CC1C3)c1cnc(-c2cn(C3CCC(F)(F)CC3)c3cc(OC4CCN(c5ncc(F)s5)CC4)ccc23)nc1C(F)(F)F (stereo not shown) [Compound I-420]
8,< 10,COCCN1CCC(Oc2ccc3c(-c4ncc(C(=O)NC5(C(=O)O)C6CC7CC(C6)CC5C7)c(C(F)(F)F)n4)cn(C4CCC(F)(F)CC4)c3c2)CC1 (stereo not shown) [Compound I-253]
9,< 10,O=C(NC1(C(=O)O)C2CC3CC(C2)CC1C3)c1cnc(-c2cn(C3CCC(F)(F)CC3)c3cc(O[C@H]4CCN(c5ncc(F)cn5)C4)ccc23)nc1C(F)(F)F (stereo partly shown) [Compound I-377]
10,< 10,O=C(NC1(C(=O)O)C2CC3CC(C2)CC1C3)c1cnc(-c2cn(C3CCC(F)(F)CC3)c3cc(O[C@H]4CCN(C5COC5)C4)ccc23)nc1C(F)(F)F (stereo partly shown) [Compound I-248]
11,< 10,O=C(NC1(C(=O)O)C2CC3CC(C2)CC1C3)c1cnc(N2CC3(CCOCC3)c3cc(OCC(F)(F)F)ccc32)nc1C(F)(F)F (stereo not shown) [Compound I-381]
12,< 10,O=C(NC1(C(=O)O)C2CC3CC(C2)CC1C3)c1ccc(-c2cn(-c3cncnc3)c3cc(OC4CCN(c5ncccn5)CC4)ccc23)nc1C(F)(F)F (stereo not shown) [Compound I-196]
13,< 10,O=C(NC1(C(=O)O)C2CC3CC(C2)CC1C3)c1cnc(N2CC3(CCOCC3)c3cc(OCCC(F)(F)F)ccc32)nc1C(F)(F)F (stereo not shown) [Compound I-442]
14,< 10,O=C(NC1(C(=O)O)C2CC3CC(C2)CC1C3)c1cnc(-c2cn(C3CCC(F)(F)CC3)c3cc(OC4CCN(C(=O)C5CC5)CC4)ccc23)nc1C(F)(F)F (stereo not shown) [Compound I-258]
15,< 10,CC(C)(C)CC(NC(=O)c1cnc(-c2cn(C3CCC(F)(F)CC3)c3cc(OC4CCN(c5ncccn5)CC4)ccc23)nc1C(F)(F)F)C(=O)O (racemic) [Compound I-271]
16,< 10,O=C(NC1(C(=O)O)C2CC3CC(C2)CC1C3)c1cnc(-c2cn(C3CCC(F)(F)CC3)c3cc(C(=O)N4CCN(c5ncc(F)cn5)CC4)ccc23)nc1C(F)(F)F (stereo not shown) [Compound I-433]
17,< 10,O=C(NC1(C(=O)O)C2CC3CC(C2)CC1C3)c1cnc(-c2cn(C3CCC(F)(F)CC3)c3cc(O[C@@H]4CCN(CC(F)(F)F)C4)ccc23)nc1C(F)(F)F (stereo partly shown) [Compound I-374]
18,< 10,Cc1csc(COc2ccc3c(c2)CCN3c2ncc(C(=O)NC3(C(=O)O)CCCCC3)c(C(F)(F)F)n2)n1 [Compound I-37]
19,< 10,O=C(NC1(C(=O)O)C2CC3CC(C2)CC1C3)c1cnc(N2CC3(CCOCC3)c3cc(C4CCCC4)ccc32)nc1C(F)(F)F (stereo not shown) [Compound I-129]

# Same assay, conditions: inhibitory effect against RSV type A (RSV A2 strain), HEp-2 cells, CPE inhibition; read-out: EC50
row,EC50 [nM],SMILES
1,< 10,Cc1cccnc1-n1cc(-c2ccc(C(=O)NC3(C(=O)O)C4CC5CC(C4)CC3C5)c(C(F)(F)F)n2)c2ccc(OC3CCN(c4ncccn4)CC3)cc21 (stereo not shown) [Compound I-311]
2,< 10,O=C(NC1(C(=O)O)C2CC3CC(C2)CC1C3)c1ccc(N2CC3(CCOCC3)c3cc(OCCC4CCOCC4)ccc32)nc1C(F)(F)F (stereo not shown) [Compound I-101]
3,< 10,O=C(NC1(C(=O)O)C2CC3CC(C2)CC1C3)c1cnc(N2CC3(CCN(C4COC4)C3)c3cc(OC4CCN(c5ncccn5)CC4)ccc32)nc1C(F)(F)F (racemic) [Compound I-333]
4,< 10,N#Cc1ccc(-n2cc(-c3ccc(C(=O)NC4(C(=O)O)C5CC6CC(C5)CC4C6)c(C(F)(F)F)n3)c3ccc(OC4CCN(c5ncccn5)CC4)cc32)nc1 (stereo not shown) [Compound I-340]
5,< 10,O=C(NC1(C(=O)O)C2CC3CC(C2)CC1C3)c1cnc(N2CC3(CCOCC3)c3cc(CN4CCN(c5ncccn5)CC4)ccc32)nc1C(F)(F)F (stereo not shown) [Compound I-360]
6,< 10,N#Cc1cccc(-n2cc(-c3ccc(C(=O)NC4(C(=O)O)C5CC6CC(C5)CC4C6)c(C(F)(F)F)n3)c3ccc(OC4CCN(c5ncccn5)CC4)cc32)c1 (stereo not shown) [Compound I-336]
7,< 10,CC(F)(F)c1nc(N2CC3(CCOCC3)c3cc(OC4CCN(c5ncccn5)CC4)ccc32)ncc1C(=O)NC1(C(=O)O)C2CC3CC(C2)CC1C3 (stereo not shown) [Compound I-294]
8,< 10,O=C(NC1(C(=O)O)C2CC3CC(C2)CC1C3)c1ccc(-c2cn(-c3ccncc3C(F)(F)F)c3cc(OC4CCN(c5ncccn5)CC4)ccc23)nc1C(F)(F)F (stereo not shown) [Compound I-329]

row,SMILES,EC50 [nM]
1,"COc1cccc(COc2ccc3c(c2)CCN3c2ncc(C(=O)NC3(C(=O)O)CC4CCC3C4)c(C(F)(F)F)n2)c1 (single isomer, unassigned) [Compound I-17]",< 10
2,"COc1cccc(COc2ccc3c(c2)CCN3c2ncc(C(=O)NC3(C(=O)O)CC4CCC3C4)c(C(F)(F)F)n2)c1 (single isomer, unassigned) [Compound I-19]",< 10
